ChEMBL document CHEMBL1212829, “Efficient synthesis of Hsp90 inhibitor dimers as potential antitumor agents” (Bioorg Med Chem, 2010)

Experiments:
[1] = target: Heat shock protein HSP 90-alpha (Homo sapiens, UniProt P07900); assay: Displacement of biotin-labeled geldanamycin from N-terminal His-tagged human recombinant HSP90alpha expressed in Escherichia coli
Heat shock protein HSP90 = Heat shock protein HSP90 (Homo sapiens, UniProt P07900+P08238); assay: Inhibition of Hsp90 in human SKBR3 cells assessed as Her2 degradation after 24 hrs by Western blotting; format: cell-based; conditions: sk-br-3
SK-BR-3 = assay: Cytotoxicity against human SKBR3 cells after 72 hrs by crystal violet assay; format: functional, cell-based; conditions: SK-BR-3, 72 h

Row | IC50 [1] [µM] | IC50 (Heat shock protein HSP90) [µM] | SMILES | IC50 (SK-BR-3) [µM]
1 | 1.4 | 2.6 | C#CCCCCn1c(Sc2cc3c(cc2Br)OCO3)nc2c(N)ncnc21 | 1.4
2 | 0.65 | 6.3 | Nc1ncnc2c1nc(Sc1cc3c(cc1Br)OCO3)n2CCCc1cn(CCOCCOCCOCCOCCOCCn2cc(CCCn3c(Sc4cc5c(cc4Br)OCO5)nc4c(N)ncnc43)nn2)nn1 | 3.8
3 | 5.1 | 5.2 | Nc1ncnc2c1nc(Sc1cc3c(cc1Br)OCO3)n2CCCCc1cn(CCOCCOCCOCCOCCOCCn2cc(CCCCn3c(Sc4cc5c(cc4Br)OCO5)nc4c(N)ncnc43)nn2)nn1 | 3
4 | 0.79 | 7.1 | Nc1ncnc2c1nc(Sc1cc3c(cc1Br)OCO3)n2CCCc1cn(CCOCCOCCOCCOCCOCCOCCn2cc(CCCn3c(Sc4cc5c(cc4Br)OCO5)nc4c(N)ncnc43)nn2)nn1 | 5.6
5 | 3.4 | 4.7 | Nc1ncnc2c1nc(Sc1cc3c(cc1Br)OCO3)n2CCCCc1cn(CCOCCOCCOCCOCCOCCOCCn2cc(CCCCn3c(Sc4cc5c(cc4Br)OCO5)nc4c(N)ncnc43)nn2)nn1 | 5
6 | 1.1 | 9.2 | Nc1ncnc2c1nc(Sc1cc3c(cc1Br)OCO3)n2CCCc1cn(CCOCCOCCOCCOCCOCCOCCOCCn2cc(CCCn3c(Sc4cc5c(cc4Br)OCO5)nc4c(N)ncnc43)nn2)nn1 | 4.8
7 | 3.1 | 4.2 | Nc1ncnc2c1nc(Sc1cc3c(cc1Br)OCO3)n2CCCCc1cn(CCOCCOCCOCCOCCOCCOCCOCCn2cc(CCCCn3c(Sc4cc5c(cc4Br)OCO5)nc4c(N)ncnc43)nn2)nn1 | 4.8
8 | 0.49 | 3.9 | Nc1ncnc2c1nc(Sc1cc3c(cc1Br)OCO3)n2CCCc1cn(CCCO)nn1 | 1.8
9 | 0.51 | 2.9 | Nc1ncnc2c1nc(Sc1cc3c(cc1Br)OCO3)n2CCCCc1cn(CCCO)nn1 | 1.4
10 | 0.3 | 0.46 | C#CCCCn1c(Sc2cc3c(cc2Br)OCO3)nc2c(N)ncnc21 | 0.33
